Test results as given in patent US20230122249A1, “1H-PYRAZOLO[4,3-d]PYRIMIDINE COMPOUNDS AS TOLL-LIKE RECEPTOR 7 (TLR7) AGONISTS” (BRISTOL-MYERS SQUIBB COMPANY, priority 2020, published 2023).

Molecular target: T1, human TLR7 (Homo sapiens, UniProt Q9NYK1)
T1 construct: host or cells: HEK-Blue TLR7 cells (engineered human embryonic kidney cells)
T1 sequence (Q9NYK1 27-1049): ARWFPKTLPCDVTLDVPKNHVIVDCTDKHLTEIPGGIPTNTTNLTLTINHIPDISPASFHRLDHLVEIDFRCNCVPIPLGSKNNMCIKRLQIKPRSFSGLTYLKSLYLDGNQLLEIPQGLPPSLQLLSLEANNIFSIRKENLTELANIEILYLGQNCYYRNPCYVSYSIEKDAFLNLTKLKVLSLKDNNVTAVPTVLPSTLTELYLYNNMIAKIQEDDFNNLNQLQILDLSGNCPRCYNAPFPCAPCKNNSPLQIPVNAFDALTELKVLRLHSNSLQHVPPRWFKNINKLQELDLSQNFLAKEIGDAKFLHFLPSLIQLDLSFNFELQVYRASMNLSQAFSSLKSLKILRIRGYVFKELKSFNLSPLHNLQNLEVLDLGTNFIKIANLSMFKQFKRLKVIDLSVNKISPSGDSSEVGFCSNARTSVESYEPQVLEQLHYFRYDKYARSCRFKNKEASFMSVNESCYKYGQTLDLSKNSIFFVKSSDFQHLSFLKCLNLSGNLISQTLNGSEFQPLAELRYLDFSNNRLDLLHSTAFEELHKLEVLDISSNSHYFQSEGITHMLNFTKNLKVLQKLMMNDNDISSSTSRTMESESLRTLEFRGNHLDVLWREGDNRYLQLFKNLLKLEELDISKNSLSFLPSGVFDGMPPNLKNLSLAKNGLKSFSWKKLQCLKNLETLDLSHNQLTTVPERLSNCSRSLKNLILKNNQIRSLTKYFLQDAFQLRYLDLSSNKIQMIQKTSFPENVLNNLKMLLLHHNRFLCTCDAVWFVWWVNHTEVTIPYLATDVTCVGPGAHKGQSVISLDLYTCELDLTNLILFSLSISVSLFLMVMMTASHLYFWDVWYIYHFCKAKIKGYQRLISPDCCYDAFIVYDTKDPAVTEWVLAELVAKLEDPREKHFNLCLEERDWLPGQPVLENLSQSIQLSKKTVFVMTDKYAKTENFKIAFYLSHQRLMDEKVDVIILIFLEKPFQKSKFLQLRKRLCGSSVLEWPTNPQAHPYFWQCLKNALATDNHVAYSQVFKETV
Assay: Human TLR7 agonist activity (hTLR7 reporter) assay in HEK-Blue TLR7 cells, SEAP readout
Assay type: cell-based
Settings: 18 h treatment, average where assay repeated
Description: This procedure describes a method for assaying human TLR7 (hTLR7) agonist activity of the compounds disclosed in this specification.
HEK-Blue™ TLR7 cells were added to each well of a 384-well tissue-culture plate (15,000 cells per well) and incubated 16-18 h at 37° C., 5% CO2. Compounds (100 nl) were dispensed into wells containing the HEK-Blue™ TLR cells and the treated cells were incubated at 37° C., 5% CO2. After 18 h treatment ten microliters of freshly-prepared Quanti-Blue™ reagent (Invivogen) was added to each well, incubated for 30 min (37° C., 5% CO2) and SEAP levels measured using an Envision plate reader (OD=620 nm). The half maximal effective concentration values (EC50; compound concentration which induced a response halfway between the assay baseline and maximum) were calculated.

| SMILES | EC50 |
| --- | --- |
| COc1cc(CNC2CCC2)ccc1Cn1ncc2nc(N)nc(NCC3CC4(C3)CC4F)c21 (mixture of isomers) [Compound 115] | 84.1 nM |
| COc1cc(CNC2CCC2)ccc1Cn1ncc2nc(N)nc(NCC3CC4(C3)CC4(F)F)c21 (mixture of isomers) [Compound 136] | 68.1 nM |
| CCC[C@@H](CCO)Nc1nc(N)nc2cnn(Cc3ccc(CN4CC5(C4)CN(C(C)=O)C5)cc3OC)c12 [Compound 101] | 32.4 nM |
| CCCCNc1nc(N)nc2cnn(Cc3ccc(CN4CC5(C4)CC(F)(F)C5)cc3OC)c12 [Compound 102] | 95.4 nM |
| CCCCNc1nc(N)nc2cnn(Cc3ccc(CN4CC5(COC5)C4)cc3OC)c12 [Compound 103] | 62.9 nM |
| CCCCNc1nc(N)nc2cnn(Cc3ccc(CN4CC5(C4)CN(C(=O)CC(C)C)C5)cc3OC)c12 [Compound 104] | 138 nM |
| CCCCNc1nc(N)nc2cnn(Cc3ccc(CN4CC5(C4)CN(C(=O)C(C)(C)C)C5)cc3OC)c12 [Compound 105] | 60 nM |
| CCC[C@@H](CCO)Nc1nc(N)nc2cnn(Cc3ccc(CN4CC5(C4)CN(C(=O)C4CCC4)C5)cc3OC)c12 [Compound 106] | 11.6 nM |
| CCC[C@@H](CCO)Nc1nc(N)nc2cnn(Cc3ccc(CN4CC5(C4)CN(C(=O)C4(C)CC4)C5)cc3OC)c12 [Compound 107] | 6.6 nM |
| COc1cc(CN2CC3(C2)CN(C(C)=O)C3)ccc1Cn1ncc2nc(N)nc(NCC3CC4(CC4)C3)c21 [Compound 108] | 50.1 nM |
| COc1cc(CN2CC3(C2)CN(C(C)=O)C3)ccc1Cn1ncc2nc(N)nc(NCC3CC34CC4)c21 (stereo not shown) [Compound 109] | 1230 nM |
| CCCCNc1nc(N)nc2cnn(Cc3ccc(CN4CC5(C4)CN(C(=O)C4CCC4)C5)cc3OC)c12 [Compound 110] | 31.9 nM |
| CCCCNc1nc(N)nc2cnn(Cc3ccc(CN4CC5(C4)CN(C(=O)C4(C)CC4)C5)cc3OC)c12 [Compound 111] | 52.5 nM |
| CCC[C@@H](CCO)Nc1nc(N)nc2cnn(Cc3ccc(CN4CC5(CCO5)C4)cc3OC)c12 [Compound 112] | 1.5 nM |
| CCC[C@@H](CCO)Nc1nc(N)nc2cnn(Cc3ccc(CN4CC5(CCOCC5)C4)cc3OC)c12 [Compound 113] | 4.6 nM |
| CCC[C@@H](CCO)Nc1nc(N)nc2cnn(Cc3ccc(CNC4CCOCC45CCC5)cc3OC)c12 (stereo partly shown) [Compound 114] | 3.4 nM |
| COc1cc(CNC2CCOCC2)ccc1Cn1ncc2nc(N)nc(NCC3CC4(C3)CC4F)c21 (stereo not shown) [Compound 116] | 163 nM |
| COc1cc(CN2C[C@H]3CN(C)C[C@H]3C2)ccc1Cn1ncc2nc(N)nc(NCC3CC4(C3)CC4F)c21 (stereo partly shown) [Compound 118] | 137 nM |
| COc1cc(CN2CC3(CN(C)C3)C2)ccc1Cn1ncc2nc(N)nc(NCC3CC4(C3)CC4F)c21 (stereo not shown) [Compound 120] | 262 nM |
| COc1cc(CN2CC3(C2)CN(C(C)=O)C3)ccc1Cn1ncc2nc(N)nc(NCC3CC4(C3)CC4(F)F)c21 (stereo not shown) [Compound 122] | 241 nM |

| SMILES | EC50 |
| --- | --- |
| COc1cc(CN2CC3(C2)CN(C(C)C2(C)CC2)C3)ccc1Cn1ncc2nc(N)nc(NCC3CC4(C3)CC4(F)F)c21 (stereo not shown) [Compound 123] | 320 nM |
| COc1cc(CN2C[C@@H]3C[C@H]2CN3)ccc1Cn1ncc2nc(N)nc(NCC3CC4(C3)CC4F)c21 (stereo partly shown) [Compound 124] | 193 nM |
| COc1cc(CN2C[C@H]3C[C@@H]2CN3C)ccc1Cn1ncc2nc(N)nc(NCC3CC4(C3)CC4F)c21 (stereo partly shown) [Compound 125] | 59.2 nM |
| COc1cc(CN2C[C@H]3CNC[C@H]3C2)ccc1Cn1ncc2nc(N)nc(NCC3CC4(C3)CC4F)c21 (stereo partly shown) [Compound 126] | 244 nM |
| COc1cc(CN2CC3(C2)CN(C(=O)C2(C)CC2)C3)ccc1Cn1ncc2nc(N)nc(NCC3CC4(C3)CC4F)c21 (stereo not shown) [Compound 128] | 349 nM |
| COc1cc(CNC2CCC2)ccc1Cn1ncc2nc(N)nc(NCC3CC4(CC4)C3)c21 [Compound 129] | 24.4 nM |
| COc1cc(CNC2CCOCC2)ccc1Cn1ncc2nc(N)nc(NCC3CC4(CC4)C3)c21 [Compound 130] | 39.7 nM |
| COc1cc(CN2C[C@H]3C[C@@H]2CN3C)ccc1Cn1ncc2nc(N)nc(NCC3CC4(CC4)C3)c21 [Compound 134] | 16.6 nM |
| COc1cc(CN2CC3(CCOCC3)C2)ccc1Cn1ncc2nc(N)nc(NCC3CC4(CC4)C3)c21 [Compound 135] | 69.8 nM |
| COc1cc(CNC2CCOCC2)ccc1Cn1ncc2nc(N)nc(NCC3CC4(C3)CC4(F)F)c21 (stereo not shown) [Compound 137] | 88.1 nM |
| COc1cc(CN2CC3(CN(C)C3)C2)ccc1Cn1ncc2nc(N)nc(NCC3CC4(C3)CC4(F)F)c21 (stereo not shown) [Compound 138] | 244 nM |
| COc1cc(CN2C[C@H]3CNC[C@H]3C2)ccc1Cn1ncc2nc(N)nc(NCC3CC4(C3)CC4(F)F)c21 (stereo partly shown) [Compound 140] | 435 nM |
| COc1cc(CN2C[C@H]3C[C@@H]2CN3C)ccc1Cn1ncc2nc(N)nc(NCC3CC4(C3)CC4(F)F)c21 (stereo partly shown) [Compound 142] | 49.7 nM |
| COc1cc(CN2CC3(CC(O)C3)C2)ccc1Cn1ncc2nc(N)nc(NCC3CC4(C3)CC4(F)F)c21 (stereo not shown) [Compound 143] | 103 nM |
| COc1cc(CN2CC3(CC(OC)C3)C2)ccc1Cn1ncc2nc(N)nc(NCC3CC4(C3)CC4(F)F)c21 (stereo not shown) [Compound 144] | 69.5 nM |
| COc1cc(C(=O)N2CC3(CC(O)C3)C2)ccc1Cn1ncc2nc(N)nc(NCC3CC4(C3)CC4(F)F)c21 (stereo not shown) [Compound 160] | 2580 nM |
| COc1cc(C(=O)N2CCOCC2)ccc1Cn1ncc2nc(N)nc(NCC3CC4(C3)CC4(F)F)c21 (stereo not shown) [Compound 161] | 354 nM |
| COc1cc(C(=O)N(C)C)ccc1Cn1ncc2nc(N)nc(NCC3CC4(C3)CC4(F)F)c21 (stereo not shown) [Compound 162] | 497 nM |
| COc1cc(C(=O)NC2CCN(C)CC2)ccc1Cn1ncc2nc(N)nc(NCC3CC4(C3)CC4(F)F)c21 (stereo not shown) [Compound 164] | 638 nM |
| COc1cc(C(=O)N2CCN(C)CC2)ccc1Cn1ncc2nc(N)nc(NCC3CC4(C3)CC4(F)F)c21 (stereo not shown) [Compound 165] | 147 nM |

System: CD69 in human whole blood
Assay: Induction of CD69 in human whole blood (hWB)
Assay type: cell-based
Settings: heparinized human whole blood, 17 h, CD69 surface staining; 100% set to 1 uM resiquimod; average where assay repeated
Description: The induction of Type I interferon (IFN) MX-1 genes and the B-cell activation marker CD69 are downstream events that occur upon activation of the TLR7 pathway. The following is a human whole blood assay that measures their induction in response to a TLR7 agonist.
Heparinized human whole blood was harvested from human subjects and treated with test TLR7 agonist compounds at 1 mM. The blood was diluted with RPMI 1640 media and Echo was used to predot 10 nL per well giving a final concentration of 1 uM (10 nL in 10 uL of blood). After mixing on a shaker for 30 sec, the plates were covered and placed in a 37° C. chamber for o/n=17 hrs. Fixing/lysis buffer was prepared (5×->1×in H2O, warm at 37° C.; Cat# BD 558049) and kept the perm buffer (on ice) for later use.
For surface markers staining (CD69): prepared surface Abs: 0.045 ul hCD14-FITC (ThermoFisher Cat # MHCD1401)+0.6 ul hCD19-ef450 (ThermoFisher Cat #48-0198-42)+1.5 ul hCD69-PE (cat# BD555531)+0.855 ul FACS buffer. Added 3 ul/well, spin1000 rpm for 1 min and mixed on shaker for 30 sec, put on ice for 30 mins. Stop stimulation after 30 minutes with 70 uL of prewarmed 1×fix/lysis buffer and use Feliex mate to resuspend (15 times, change tips for each plate) and incubate at 37° C. for 10 minutes.
Centrifuge at 2000 rpm for 5 minutes aspirate with HCS plate washer, mix on shaker for 30 sec and then wash with 70 uL in dPBS and pelleted 2 xs (2000 rpm for 5 min) and 50 ul wash in FACS buffer pelleted 1 xs(2000 rpm for 5 min). Mix on shaker for 30 sec. For Intracellular markers staining (MX-1): Add 50 ul of BD Perm buffer III and mix on shaker for 30 sec. Incubate on ice for 30 minutes (in the dark). Wash with 50 uL of FACS buffer 2×(spin @2300 rpm×5 min after perm) followed by mixing on shaker for 30 sec. Resuspended in 20 ul of FACS buffer containing MX1 antibody ( )(4812)-Alexa 647: Novus Biologicals #NBP2-43704AF647) 20 ul FACS bf+0.8 ul hlgG+0.04 ul MX-1. Spin 1000 rpm for 1 min, mix on shaker for 30 se and the samples were incubated at RT in the dark for 45 minutes followed by washing 2×FACS buffer (spin @2300 rpm×5 min after perm). Resuspend 20 ul (35 uL total per well) of FACS buffer and cover with foil and place in 4° C. to read the following day. Plates were read on iQuePlus. The results were loaded into toolset and […] curves are generated in curve master. The y-axis 100% is set to 1 uM of resiquimod.

| SMILES | EC50 |
| --- | --- |
| CCC[C@@H](CCO)Nc1nc(N)nc2cnn(Cc3ccc(CN4CC5(C4)CN(C(C)=O)C5)cc3OC)c12 [Compound 101] | 4.5 nM |
| CCCCNc1nc(N)nc2cnn(Cc3ccc(CN4CC5(COC5)C4)cc3OC)c12 [Compound 103] | 13.5 nM |
| CCC[C@@H](CCO)Nc1nc(N)nc2cnn(Cc3ccc(CN4CC5(C4)CN(C(=O)C4CCC4)C5)cc3OC)c12 [Compound 106] | 24.9 nM |
| CCC[C@@H](CCO)Nc1nc(N)nc2cnn(Cc3ccc(CN4CC5(C4)CN(C(=O)C4(C)CC4)C5)cc3OC)c12 [Compound 107] | 9.9 nM |
| COc1cc(CN2CC3(C2)CN(C(C)=O)C3)ccc1Cn1ncc2nc(N)nc(NCC3CC4(CC4)C3)c21 [Compound 108] | 52.9 nM |
| CCCCNc1nc(N)nc2cnn(Cc3ccc(CN4CC5(C4)CN(C(=O)C4(C)CC4)C5)cc3OC)c12 [Compound 111] | 24.9 nM |
| CCC[C@@H](CCO)Nc1nc(N)nc2cnn(Cc3ccc(CN4CC5(CCO5)C4)cc3OC)c12 [Compound 112] | 333 nM |
| CCC[C@@H](CCO)Nc1nc(N)nc2cnn(Cc3ccc(CN4CC5(CCOCC5)C4)cc3OC)c12 [Compound 113] | 0.5 nM |
| COc1cc(CN2CC3(C2)CN(C(C)=O)C3)ccc1Cn1ncc2nc(N)nc(NCc3cc(C)on3)c21 [Compound 212] | 61.9 nM |
